Assays:
FD-MSCs = test: BODIPY lipid stain of FD-MSCs during adipogenic differentiation; format: cell-based, human
Procedure: All assays were performed between 7 and 15 passages. For osteocyte differentiation, mature MSCs were grown in 24 well culture plates to 100% confluency in MesenCult-ACF and induced to differentiate in OsteoLife Complete Osteogenesis Medium (Lifeline Cell Technology) for 21 days prior to staining with Lifeline Alizarin Red Stain to visualize calcium deposition. For chondrocyte differentiation. For beige adipogenic precursor generation, cells were grown in 24 well culture plates to 90% confluence and treated with 5 uM SB413542 (Sigma) and 10 nM human IL-4 (Peprotech) for 2 days. For beige adipogenic induction, adipogenic precursors are differentiated for 3 days with adipogenic medium consisting of T3 (2 nM), insulin (170 nM), rosiglitazone (1 μM), SB413542 (5 uM), IBMX (0.5 mM), dexamethasone (5 μM) and indomethacin (125 μM) in EGM-2 medium (Lonza) supplemented with the BulletKit minus FGF2 (modified from^33). Thereafter, cells are maintained in adipogenic medium without IBMX, dexamethasone and indomethacin. The medium was changed every 3 days and adipocytes were fully differentiated by 9-12 days as determined by lipid accumulation and peak expression of UCP1. Cell Isolation, Expansion and Differentiation of Interscapular Brown Adipose Tissue Preadipocytes • 1. Prior to adipose cell isolation, warm DMEM, FBS and cell wash buffer to room temperature. • 2. In a laminar flow cabinet for cell culture, place 5 g of adipose tissue on a 100×20 mm dish. Suspend tissue in 1 mL of Adipose Tissue Dissociation Kit enzyme digest cocktail and finely mince with a razorblade. • 3. […] Incubate tube at 37° C. on a rotating nutator for 30 minutes. During incubation period, briefly vortex sample for 5 s in 10-minute intervals. • 5. Transfer cells to a 15 mL tube and add 5 mL of DMEM. Filter cell suspension through a 100 μm strainer into a new 15 mL tube and centrifuge at 300 g for 5 minutes to form a pellet. • 6. Remove supernatant and leave behind […] of DMEM. Resuspend cell pellet in 10 mL of DMEM containing 10% FBS and plate in a 100×20 mm dish for expansion. Agitate plate to spread cells evenly on well surface and incubate plate at 37° C. in a 5% CO2 incubator undisturbed. Change 100% of medium every day. • 7. Upon 80% confluence, split and passage cells at a ratio of 1:6. • 8. Prepare for passage by warming cell wash buffer and cell culture medium (DMEM containing 10% FBS) to room temperature. Warm TrypLE dissociation reagent to 37° C. • 9. Aspirate cell culture medium from wells and wash once with PBS. Remove PBS and add 500 μL of pre-warmed TrypLE reagent to each well of a 6 well plate. Scale TrypLE amount for larger tissue culture plates accordingly. • 10. Incubate culture plate at 37° C. for 5 minutes. […]

SMAD2 = test: Western blot of phosphorylated SMAD2 in FD-MSCs; format: cell-based, human; conditions: SB pretreatment 2 days in MesenCult-ACF
Procedure: All assays were performed between 7 and 15 passages. For osteocyte differentiation, mature MSCs were grown in 24 well culture plates to 100% confluency in MesenCult-ACF and induced to differentiate in OsteoLife Complete Osteogenesis Medium (Lifeline Cell Technology) for 21 days prior to staining with Lifeline Alizarin Red Stain to visualize calcium deposition. For chondrocyte differentiation. For beige adipogenic precursor generation, cells were grown in 24 well culture plates to 90% confluence and treated with 5 uM SB413542 (Sigma) and 10 nM human IL-4 (Peprotech) for 2 days. For beige adipogenic induction, adipogenic precursors are differentiated for 3 days with adipogenic medium consisting of T3 (2 nM), insulin (170 nM), rosiglitazone (1 μM), SB413542 (5 uM), IBMX (0.5 mM), dexamethasone (5 μM) and indomethacin (125 μM) in EGM-2 medium (Lonza) supplemented with the BulletKit minus FGF2 (modified from^33). Thereafter, cells are maintained in adipogenic medium without IBMX, dexamethasone and indomethacin. The medium was changed every 3 days and adipocytes were fully differentiated by 9-12 days as determined by lipid accumulation and peak expression of UCP1. […] SWATH runs were extracted and analyzed using PeakView software and MarkerView software was utilized to find statistically relevant relationships through t test comparisons. […]

[1] = SB throughout the adipogenic differentiation period, day 12

Compound: NC(=O)c1ccc(-c2nc(-c3ccc4c(c3)OCO4)c(-c3ccccn3)[nH]2)cc1 [SB, SB431542]
- lipid accumulation (FD-MSCs; SB for 2 days before and throughout the 12-day adipogenic differentiation): greatest amount of lipid accumulation
- additional increase in lipid droplet staining (FD-MSCs; SB prior to and during differentiation, versus SB during differentiation alone): 45%
- cells in culture with lipid content (FD-MSCs; [1]): approximately 50%
- increase in lipid content (FD-MSCs; [1]): 5 fold
- constitutive phosphorylation of SMAD2 (SMAD2): inhibited

Source: US12312599B2, “Methods, compositions, and kits for producing beige adipocytes and treating metabolic disorders” (MaineHealth, priority 2018, dated 2025)
